One data set relates to Daoy. In words: MTT cytotoxicity assay, Daoy.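 For all read-outs here: viability read as formazan absorbance at 570 nm after MTT reduction, three independent biological replicates.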 It counts as cell-based, human. The settings on record: Homo sapiens, Daoy, 72 h, MTT; for cytotoxicity at 50 µM: read-out: % Cytotoxicity (50 µM) DAOY. (In general: Tetrazolium dyes change colour on reduction, which living cells bring about.)
The test system of a further data set is HCT116. In words: Colony formation assay, HCT116. It counts as cell-based, human. The settings on record: 5 µM, 14 d. Here is the method: HT29, HCT116, H1975 and HEK293 cells were seeded in a 6-well plate (1 × 10^4 cells per well) and incubated overnight in DMEM F12 supplemented with 10% FBS. […] After 72 h, the medium was replaced by fresh medium without stimuli, and cells were incubated for an additional 14 d to permit colony formation. The cells were fixed during 30 min with PFA 4% (v/v), washed and stained for 30 min at RT with a 5% solution of violet crystal for final colony counting. Three independent replicates were performed.

Data set [1] is described as follows: MTT cytotoxicity assay, HEK293 control cells. Format: cell-based, human. The settings on record: human, HEK293 cells; 50 µM, 72 h, MTT.
The subject of data set [2] is HEK293. Briefly: MTT cytotoxicity assay, HEK293 control cells. The settings on record: for IC50: Homo sapiens, HEK293, MTT, 72 h, non-cancer cell line. Format: cell-based, human.
Data set [3] has as its system HT29. In words: Cell cycle analysis (PI, flow cytometry), HT29. Format: cell-based, human. The settings on record: 19 µM, 24 h, compared to the control. As for the experimental part:
HT29 and HEK293 cells were plated in 6-well plates at a density of 2.0 × 10^5 cells/1.5 mL/well and grown overnight at 37 °C in a 5% CO2 humidified atmosphere. […] Aliquots of cells were collected, pelleted, washed, and fixed with ethanol (70% v/v) for at least 30 min at 4 °C. Cells were resuspended twice in PBS and, after centrifugation and elimination of the supernatant, they were finally resuspended in a PBS solution containing propidium iodide (PI; […], Invitrogen), RNase A ([…], Invitrogen). After a final incubation for 1 h in the dark at 37 °C, the PI signal was measured using a FACS Canto II Flow-cytometer (BD; Mountain View, CA) with a 488 nm excitation laser, captured and FACS DIVA was used as the acquisition software. The percentage of cells in each phase was analysed using the FCS Express v6 software. Two independent biological replicates were performed.
A general note: Flow cytometry measures light scatter and fluorescence of single cells or particles in a stream.

The test system of a further data set is BxPC-3. In words: MTT cytotoxicity assay, BxPC-3. Format: cell-based. The following applies: Homo sapiens, 72 h, 0.05–50 µM. As for the experimental part: (§1) Cytotoxicity assays were performed by using the MTT reduction method as described previously. Briefly, cancer cell lines were plated in flat-bottom 96-well plates at a cell concentration of 5 × 10^3 cells/well for the fastest growing lines, such as HEK293 and HT29 cells and 1 × 10^4 cells/well for more slowly growing lines, such as HCT116, H1975, BxPC-3, AsPC-1, B16-F10 and DAOY. Then, cells were incubated with the synthesised compounds at different concentrations (from 0.05 to 50 µM) in 200 µL with 10% FBS in RPMI 1640 or DMEM F12 culture medium at 37 °C for 72 h. Later, 10 µL of MTT were added at a final concentration of 0.5 mg/mL, incubated at 37 °C for 4 h, and then solubilised with 10% sodium dodecyl sulphate (SDS) in 0.1 mM HCl and incubated overnight at 37 °C. Formazan formation was measured at 570 nm in a multiwell plate reader (Cytation 5, Biotek Instruments, Winooski, VT, USA). Three independent biological replicates were performed.

The subject of data set [4] is HEK293. Briefly: CFSE proliferation assay, HEK293. Format: cell-based, human. The settings on record: 19 µM, 48 h. Here is the method:
(§2) HT29 and HEK293 cells were resuspended at 1 × 10^6/mL in DMEM F12 without FBS. A 5 mM CFSE stock solution carboxyfluorescein diacetate succinimidyl ester (Cell Proliferation Kit, Life Technologies, Carlsbad, CA, USA) in DMSO was added to a final concentration of 5 µM and incubated at 37 °C for 15 min protected from light. At the end of the incubation period, the cells were immediately washed twice in cold PBS 1X/no-FBS. Cells were washed three times in PBS 1×/10%-FBS and resuspended in the same medium and plated in 12-well plates at a density of 1 × 10^5 cells/200 µL medium and grown overnight at 37 °C in a 5% CO2 humidified atmosphere. […] The cells were collected and then analysed by flow cytometry (BD; FACScanto II, Mountain View, CA, USA) and data were processed using FCS Express v6 software. Two independent biological replicates were performed.

Data set [5] relates to HT29. In words: MTT cytotoxicity assay, HT29. The following applies: Homo sapiens, HT-29, 72 h, MTT; for cytotoxicity at 50 µM: read-out: % Cytotoxicity (50 µM) HT29; for IC50: 0.05–50 µM. Format: cell-based. Here is the method: as §1
The subject of a further data set is Gli1 mRNA in Smo−/− MEFs. Briefly: Gli1 mRNA (qRT-PCR) in Smo−/− MEFs. Format: cell-based, mouse. The settings on record: 24 h and/or 48 h. As for the experimental part: HEK293T and Smo^−/−, Ptch^−/− MEFs cells were cultured in DMEM plus 10% FBS, 1% L-glutamine and antibiotics. Transient transfections were performed using DreamFectTM Gold transfection reagent (Oz Biosciences SAS, Marseille, France) following the manufacturer’s instructions and for varying periods of time depending on the experiment (24–72 h). […] Vehicle (DMSO) was used as control.
Total RNA was isolated with Trizol (Invitrogen/Life Technologies, Carlsbad, CA, USA) from Smo^−/− MEFs, Ptch^−/− MEFs or HT29 cells treated for 24 h and/or 48 h with 4s at different concentrations and reverse transcribed with the SensiFAST cDNA Synthesis Kit (Bioline Reagents Limited, London, UK). Quantitative real-time PCR (Q-PCR) analysis of Gli1 and housekeeping (HPRT, TBP, HMBS) mRNA levels was performed on each cDNA sample using the VIIA7 Real Time PCR System employing Assay-on-Demand Reagents (Life Technologies) as previously described. […] Each amplification reaction was performed in triplicate, the average of the three threshold cycles was used to calculate the amount of transcript in the sample (using SDS version 2.3 Software). mRNA quantification was expressed in arbitrary units as the ratio of the sample quantity to the quantity of the calibrator (ΔCt method). […]
(In general: In qPCR the cycle at which signal appears reflects the starting amount.)

Data set [6] relates to HT29. In words: CFSE proliferation assay, HT29. Format: cell-based, human. The following applies: 19 µM, 48 h. Here is the method:
as §2

In a further data set the test system is AsPC-1. In words: MTT cytotoxicity assay, AsPC-1. It counts as cell-based. The settings on record: Homo sapiens, ASPC1, 72 h, 0.05–50 µM. As for the experimental part:
as §1

Molecules are shown by their SMILES.

For orientation: IC50 means the midpoint of a concentration-inhibition curve. Low readings indicate higher potency, high ones lower potency. In the case of `CCCCCCn1cnc2c(-c3ccc(OC(F)(F)F)cc3)nc(N3CCN(c4ccncc4)CC3)nc21` [Compound 4s, 9-Hexyl-2-(4-(pyridin-4-yl)piperazin-1-yl)-6-(4-(trifluoromethoxy)phenyl)-9H-purine], the cytotoxicity at 50 µM was found to be 98 ± 0.3% in the data set with Daoy and 25 ± 2.7% in the data set with HT29 [5]. Moreover, the “colony formation HCT116” value in the data set with HCT116 is listed as “totally inhibited the formation of colonies”. In data set [1], this compound registered a cytotoxicity at 72 h, 50 µM of less than 50%. In addition, the “concentration at which effects on HEK293 cells were observed” value in the data set with HEK293 [2] is reported as “above 50 µM”. Moreover, the IC50 was more than 50 µM in the data set with HEK293 [2], 4.1 ± 0.9 µM in the data set with BxPC-3, 15 ± 1.2 µM in the data set on HT29 [5] and 1.7 ± 0.05 µM in the data set with AsPC-1. Moreover, the “decrease in S phase” value with HT29 [3] is 12%. Further, the “increase of the G1/G0 phase” value in the data set on HT29 [3] amounted to 24%. The “HEK293 cell proliferation (CFSE)” value in the data set with HEK293 [4] is given as “no effect”. For the same compound, the “GLI1 mRNA levels in Smo−/− MEFs” value in the data set with Gli1 mRNA in Smo−/− MEFs was “did not affect the mRNA levels of GLI1”. Also, the “HT29 cell proliferation (CFSE)” value in the data set with HT29 [6] is given as “significantly reduced HT29 cell proliferation”.
For the compound `CS(=O)(=O)c1ccc(C(=O)Nc2ccc(Cl)c(-c3ccccn3)c2)c(Cl)c1` [Vismodegib, reference compound], the IC50 in the data set on Daoy (0.05–50 µM), in the data set with HEK293 [2], in the data set with BxPC-3, in the data set with HT29 [5] and in the data set on AsPC-1 was more than 50 µM throughout. The cytotoxicity at 50 µM with Daoy and in the data set with HT29 [5] was less than 50% in each case. In addition, in the data set with HCT116, the “colony formation HCT116” value is recorded as “less effective than 4s”. For the same compound, in data set [1], the cytotoxicity at 72 h, 50 µM was less than 50%. In addition, in the data set with HT29 [3], the “increase of the G1/G0 phase” value was determined as 10%. The “HEK293 cell proliferation (CFSE)” value in the data set with HEK293 [4] is “less effect on reducing proliferation than 4s”. In the data set on Gli1 mRNA in Smo−/− MEFs, the “GLI1 mRNA levels in Smo−/− MEFs” value is “did not affect the mRNA levels of GLI1”. Besides, in the data set on HT29 [6], the “HT29 cell proliferation (CFSE)” value is “less effect on reducing proliferation than 4s”.

For the origin of these results see PMC8395040 (International Journal of Molecular Sciences, 2021).
